Experiments:
Assay type in all cases: cell-based
LnCap = assay: Chemoresistance: growth under adhesion with etoposide, p21 cell cycle arrest, LnCap; settings: FIG. 2B
Method: (§1) Eliglustat alone has no effect.
(§2) The cells were treated with etoposide at a concentration ranging between 10 and 40 μM for 12-16 hours.
(§3) The p21 levels were determined by immunoblotting as cycle arrest index.

DU145 = assay: Chemoresistance: growth under adhesion with etoposide, p21 cell cycle arrest, DU145; settings: FIG. 2B
Method: as §1, §2, §3

[1] = system: prostate, colon and liver tumour lines expressing an oncogene belonging to the GOLPH3 cluster; assay: Growth under anchorage-independent conditions, lines expressing a GOLPH3 cluster oncogene; settings: concentrations 0 to 50 micromolar, FIG. 2A1 top series
Method: (§4) The growth of tumour lines was evaluated under different experimental conditions. 12 tumour lines, divided into six pairs derived from six different types of tumour, were used. […] The growth of the lines was observed under 3 experimental conditions: 1) absence of anchorage to the matrix; 2) exposure to chemotherapy agents; 3) undisturbed growth under adhesion to the matrix.
(§5) Growth under conditions of adhesion to the matrix and absence of stress (bottom series, black) of the lines expressing an oncogene belonging to the GOLPH3 cluster is not inhibited by miglustat. Inhibition of GSL synthesis was about 70% (at 50 micromolar miglustat).
(§6) GCS enzyme inhibitors such as miglustat, eliglustat and N-[(1R,2R)-2-(2,3-dihydro-1,4-benzodioxin-6-yl)-2-hydroxy-1-(1-pyrrolidinylmethyl)ethyl]-nonanamide (Genz-123346), or P-gp inhibitors such as zosuquidar, were used at two or three different concentrations, depending on the type of dose, to blockade glycosphingolipid biosynthesis in various tumour cells. For the growth assays, new media supplemented with the medicaments were added every three days.
(§7) • 1. Growth in the absence of anchorage (anchorage-independent) • 2. Growth of isolated cell clones (clonogenic analysis) • 3. Growth under adhesion (under adhesion).
(§8) Both the anchorage-independent and clonogenic growth tests were conducted as described previously in Rizzo et al., EMBOJ, 2021. […]

[2] = system: tumour lines deriving from the same tumour type which do not express GOLPH3; assay: Growth under anchorage-independent conditions, lines not expressing GOLPH3; settings: 0 to 50 micromolar; lines of same tumour type not expressing GOLPH3; FIG. 2A1 middle series
Method: as §4, §5, §6, §7, §8

[3] = system: lines expressing an oncogene belonging to the GOLPH3 cluster; assay: Growth under adhesion to the matrix and absence of stress; settings: lines expressing a GOLPH3 cluster oncogene; FIG. 2A1 bottom series
Method: as §4, §5, §6, §7, §8

GSL synthesis = assay: Glycosphingolipid metabolism (radiolabelling of cell sphingosine, TLC); settings: at 50 micromolar miglustat
Source text: To analyse the glycosphingolipid metabolites we used a method based on radiolabelling of cell sphingosine followed by extraction of metabolites and separation by thin-layer chromatography (TLC) as previously described in Rizzo et al., EMOJ, 2021.

For CCCCCCCC(=O)N[C@H](CN1CCCC1)[C@H](O)c1ccc2c(c1)OCCO2 [eliglustat], the “effect of co-treatment on etoposide-induced cell cycle arrest” value (LnCap; co-treatment with etoposide) was “does not modify said situation”, the “effect of co-treatment on resistance to etoposide” value (DU145; DU145, co-treatment with etoposide) was “loses said resistance” and the “effect of inhibitor alone” value (DU145; without etoposide) was “no effect”.

COc1cc([C@@H]2c3cc4c(cc3[C@@H](O[C@@H]3O[C@@H]5CO[C@@H](C)O[C@H]5[C@H](O)[C@H]3O)[C@H]3COC(=O)[C@H]23)OCO4)cc(OC)c1O [etoposide] was tested, and the “cell cycle arrest (p21 synthesis), etoposide alone” value (LnCap; not expressing a GOLPH3 cluster oncogene) was “cell cycle arrest (strong increase in p21 synthesis)” and the “response to etoposide alone (chemoresistance)” value (DU145; DU145, expressing a GOLPH3 cluster oncogene) was “resistant”.

For CCCCN1C[C@H](O)[C@@H](O)[C@H](O)[C@H]1CO [miglustat], the “growth under anchorage-independent conditions” value [1] was “inhibited”, the “growth under anchorage-independent conditions” value [2] was “not inhibited” and the “growth under conditions of adhesion to the matrix and absence of stress” value [3] was “not inhibited”. It also gave an inhibition at 50 µM (GSL synthesis) of ~70%.
